Data: patent US20260166021A1, “POLYMORPHIC FORMS OF A SOLUBLE EPOXIDE HYDROLASE INHIBITOR AND FORMULATIONS THEREOF” (EicOsis, LLC, priority 2022, published 2026)

How the values were obtained:
Format in all cases: physicochemical
[1] = Thermal stress studies at 60° C. (XRD, HPLC); details: HPLC
Procedure: Briefly, 20 mg of solid Form A, B, C, D, E, F, G, and I were weighed into 7 mL glass vials. The vials were covered with tissue and stored in ovens set to 60° C. and ambient pressure. Following 1 and 7 days incubation, solid was collected for XRD analysis.
As shown in these figures, Forms B and C converted to Forms D and A, respectively, while the other forms remained unchanged.
The starting materials, intermediates (1 day of thermal stress), and products (7 days of thermal stress) were analyzed by H PLC. Representative chromatograms from the Form D thermal stress analyses are shown in FIGS. 81-83 (starting material, 1 day, and 7 day samples, respectively).

[2] = Chemical stability in pH media (HPLC impurities)
Procedure: For the pH stability analyses, approximately 2-3 mg Form D was incubated in 1.0 mL of aqueous pH 1.0 (0.1 M HCl), pH 6.8 (water adjusted using 0.1 M NaOH and 0.1 M HCl), and pH 10.0 solutions.

[3] = Excipient stability analyses (HPLC impurities)
Procedure: For the excipient stability analyses, approximately 10-20 mg Form D was incubated in PEG400, propylene glycol, D-a-Tocopherol polyethylene glycol 1000 succinate (Vitamin E TPGS), Gelucire® 44/14, hydrogenated castor oil, glyceryl caprylate/caprate(Capmul® MCM), ethoxylated solubilizers (Kolliphor® HS 15, Kolliphor® EL), nonionic surfactant (Labrasol), and diethylene glycol monoethyl ether (Transcutol® HP).

[4] = Competitive slurry experiments (solvent-mediated polymorph transformation, XRD); details: 1 and 7 days
Procedure: Polymorph stability and interconversions were analyzed with competitive slurry experiments. The competitive slurry (solvent-mediated transformation) experiments were performed on Forms A, B, D, E, F, G, and I generated through scaled-up crystallization (summarized in TABLE 11). […] The suspensions were aliquoted at one day and seven days and filtered to isolate the solids. Remaining solid was analyzed by XRD without drying.
In FIG. 66, the second spectrum from the top corresponds to Form E. These XRD data confirmed that Patterns C, K, and D were afforded in these solvents.
In order to further confirm the rank of stability order of the selected forms and extend the temperature range of stability relationship up to 70° C. covering potential API process conditions, binary form slurries were conducted with starting mixtures of (1) Forms A and D, and (2) Forms D and E. The resultant polymorphs were characterized with XRD after 1 and 7 days, the results of which analyses are shown in FIGURE S 67-68 and summarized in TABLE 13. Pattern D stood out from both binary mixture slurries of A & D and of D & E after seven-day stirring at the elevated temperature.
Additional single form slurry experiments were conducted on Forms A, D, and E in either water or heptane at room temperature. […] In agreement with prior competitive slurry experiments, Form D was stable at room temperature in n-heptane. Pattern E was obtained from slurries starting with Forms A and E in n-heptane. As expected, Form C was formed from the Pattern E slurry in water.

[5] = PEG-stability analyses: Form C/Form D mixture slurried in PEG300 with water; details: 1:1 mixture of Forms C and D slurried in PEG300; XRD
Procedure: Of particular interest was whether Form D would convert to a hydrate (e.g., Form C) in the presence of water. To investigate the critical water concentration for phase interconversion between Pattern C and D, a series experiments were designed (as summarized in TABLE 16). A 1:1 mixture of Forms C and D was prepared and slurried in PEG 300 with different levels of water concentrations. Phase transformations were monitored with XRD, and are summarized in FIG. 85, which (from top to bottom) provides XRD of Form C, Form D, the mixture following incubation in PEG300 containing 75% water, the mixture following incubation in PEG300 containing 50% water, the mixture following incubation in PEG300 containing 25% water, the mixture following incubation in PEG300 containing 10% water, and the mixture following incubation in PEG300 containing 5% water. […] Form D is the stable form in PEG300 with less than 50% water.

[6] = Differential scanning calorimetry (DSC): heat of fusion, thermal events
Procedure: Differential scanning calorimetry analyses were performed on each sample “as is.” Unless otherwise specified, samples were weighed in an aluminum pan, covered with a pierced lid, and then crimped and analyzed from 30-300° C. ramped at 10° C./min.
The DSC data were used to determine the heat of fusion for Forms A, B, D, and F, based on their heats of fusion as measured during conversion from Form C.

[7] = 50° C., Castor Oil, hydrogenated
[8] = Room Temperature, Capmul MCM, EP
[9] = Room Temperature, Capmul MCM, NF
[10] = Room Temperature, Castor Oil, hydrogenated*
[11] = Room Temperature, Gelucire 44/14
[12] = Room Temperature, Kolliphor HS-15
[13] = Room Temperature, Propylene glycol
[14] = Room Temperature, Vitamin E TPGS

In the case of `CC[C@H](C)C(=O)N1CCC(NC(=O)Nc2ccc(OC(F)(F)F)c(F)c2)CC1` [Form D, (S)-1-(3-fluoro-4-(trifluoromethoxy)phenyl)-3-(1-(2-methylbutanoyl)piperidin-4-yl)urea], the “Day 1 % AUC” value ([1]; 60° C.) is reported as 100%, the “Day 7 % AUC” value ([1]; 60° C.) is reported as 100% and the “Initial % AUC” value ([1]; before thermal stress) is reported as 100%. The “Impurity, % (Day 4)” value ([2]; 50° C., pH 1.0) was “None Detected”, the “Impurity, % (Day 7)” value ([2]; 50° C., pH 1.0) was “None Detected” and the “Impurity, % (Day 4)” value ([2]; 50° C., pH 6.8) was “None Detected”. For the same compound, the “Impurity, % (Day 7)” value ([2]; 50° C., pH 6.8) was “None Detected”, the “Impurity, % (Day 4)” value ([2]; 50° C., pH 10.0) was “None Detected” and the “Impurity, % (Day 7)” value ([2]; 50° C., pH 10.0) was “None Detected”. The “Impurity, % (Day 4)” value ([2]; Room Temperature, pH 1.0) was “None Detected”, the “Impurity, % (Day 7)” value ([2]; Room Temperature, pH 1.0) was “None Detected” and the “Impurity, % (Day 4)” value ([2]; Room Temperature, pH 6.8) was “None Detected”. The “Impurity, % (Day 7)” value ([2]; Room Temperature, pH 6.8) was “None Detected”, the “Impurity, % (Day 4)” value ([2]; Room Temperature, pH 10.0) was “None Detected” and the “Impurity, % (Day 7)” value ([2]; Room Temperature, pH 10.0) was “None Detected”. The “impurities after incubation in pH media” value ([2]; aqueous pH 1.0, pH 6.8, pH 10.0, 4 or 7 days, room temperature or 50° C.) was “No impurities were detectable”, the “Impurity, % (Day 1)” value ([3]; 50° C., Capmul MCM, EP) was “None” and the “Impurity, % (Day 3)” value ([3]; 50° C., Capmul MCM, EP) was “None”. The “Impurity, % (Day 1)” value ([3]; 50° C., Capmul MCM, NF) was “None”, the “Impurity, % (Day 3)” value ([3]; 50° C., Capmul MCM, NF) was “None” and the “Impurity, % (Day 1)” value [3, 7] was “None”. The “Impurity, % (Day 3)” value [3, 7] was “None”, the “Impurity, % (Day 1)” value ([3]; 50° C., Gelucire 44/14) was “None” and the “Impurity, % (Day 3)” value ([3]; 50° C., Gelucire 44/14) was “None”. For the same compound, the “Impurity, % (Day 1)” value ([3]; 50° C., Kolliphor EL) was “None”, the “Impurity, % (Day 3)” value ([3]; 50° C., Kolliphor EL) was “None” and the “Impurity, % (Day 1)” value ([3]; 50° C., Kolliphor HS-15) was “None”. The “Impurity, % (Day 3)” value ([3]; 50° C., Kolliphor HS-15) was “None”, the “Impurity, % (Day 1)” value ([3]; 50° C., Labrasol) was “None” and the “Impurity, % (Day 3)” value ([3]; 50° C., Labrasol) was “None”. The “Impurity, % (Day 1)” value ([3]; 50° C., PEG 400) was “None”, the “Impurity, % (Day 1)” value ([3]; 50° C., Propylene glycol) was “None” and the “Impurity, % (Day 3)” value ([3]; 50° C., Propylene glycol) was “None”. The “Impurity, % (Day 1)” value ([3]; 50° C., Transcutol) was “None”, the “Impurity, % (Day 3)” value ([3]; 50° C., Transcutol) was “None” and the “Impurity, % (Day 1)” value ([3]; 50° C., Vitamin E TPGS) was “None”. For the same compound, the “Impurity, % (Day 3)” value ([3]; 50° C., Vitamin E TPGS) was “None”, the “impurities after incubation in excipients” value ([3]; PEG400, propylene glycol, Vitamin E TPGS, Gelucire 44/14, hydrogenated castor oil, Capmul MCM, Kolliphor HS 15, Kolliphor EL, Labrasol, Transcutol HP, 4 or 7 days, room temperature or 50° C., HPLC) was “No impurities were observed” and the “Impurity, % (Day 1)” value [3, 8] was “None”. For the same compound, the “Impurity, % (Day 3)” value [3, 8] was “None”, the “Impurity, % (Day 1)” value [3, 9] was “None” and the “Impurity, % (Day 3)” value [3, 9] was “None”. For the same compound, the “Impurity, % (Day 1)” value [3, 10] was “None”, the “Impurity, % (Day 3)” value [3, 10] was “None” and the “Impurity, % (Day 1)” value [3, 11] was “None”. The “Impurity, % (Day 3)” value [3, 11] was “None”, the “Impurity, % (Day 1)” value ([3]; Room Temperature, Kolliphor EL) was “None” and the “Impurity, % (Day 3)” value ([3]; Room Temperature, Kolliphor EL) was “None”. The “Impurity, % (Day 1)” value [3, 12] was “None”, the “Impurity, % (Day 3)” value [3, 12] was “None” and the “Impurity, % (Day 1)” value ([3]; Room Temperature, Labrasol) was “None”. The “Impurity, % (Day 3)” value ([3]; Room Temperature, Labrasol) was “None”, the “Impurity, % (Day 1)” value ([3]; Room Temperature, PEG 400) was “None” and the “Impurity, % (Day 1)” value [3, 13] was “None”. For the same compound, the “Impurity, % (Day 3)” value [3, 13] was “None”, the “Impurity, % (Day 1)” value ([3]; Room Temperature, Transcutol) was “None” and the “Impurity, % (Day 3)” value ([3]; Room Temperature, Transcutol) was “None”. For the same compound, the “Impurity, % (Day 1)” value [3, 14] was “None”, the “Impurity, % (Day 3)” value [3, 14] was “None” and the “polymorph stability in binary form slurries” value ([4]; mixtures A & D and D & E, n-heptane, up to 70° C.) was “most thermodynamically stable”. The “single form slurry in n-heptane: resultant polymorph” value ([4]; n-heptane, room temperature) was “stable”, the “polymorph stability in competitive slurry” value ([4]; room temperature, water, MTBE or n-heptane, listed as Pattern D) was “most stable form” and the “critical water concentration for phase interconversion between Pattern C and D” value [5] was 50%. The “DSC Thermal Events, Endo: melting of pattern D” value [6] was 143 °C melting of pattern D, the “stability rank among Forms A, B, D and F” value ([6]; DSC, TABLE 10) was “highest stability” and the “thermodynamic stability (from heat of fusion)” value ([6]; DSC, TABLE 10) was “thermodynamically stable”. It also gave a Heat of fusion ([6]; DSC, scaled-up polymorphs, measured during conversion from Form C) of 67.51.
